Results from PMC2990756, “Quantitative High-Throughput Screening Identifies 8-Hydroxyquinolines as Cell-Active Histone Demethylase Inhibitors” (PLoS ONE, 2010).
Like-named read-outs stand apart in the source and are kept apart here.

Columns and labels:
Format in all cases: biochemical
[1] = biological target: T1, formaldehyde dehydrogenase (FDH) (Pseudomonas putida, UniProt P46154); assay: FDH coupling enzyme counterscreen
T1 construct: purchased Sigma-Aldrich
Text: Dimethylsulfoxide certified ACS grade (DMSO) was from Fisher, Inc. HEPES buffer was obtained from Gibco. […] Black solid-bottom 1,536-well assay plates were from Greiner Bio-One (Monroe, NC).

[2] = biological target: T2, JMJD2E (KDM4E) (Homo sapiens, UniProt B2RXH2); assay: qHTS fluorescence FDH-coupled JMJD2E demethylase assay
T2 construct: The catalytic domain of human JMJD2E (residues 1–337); His6 (N); made in house; host or cells: E. coli
T2 sequence (B2RXH2 1-337): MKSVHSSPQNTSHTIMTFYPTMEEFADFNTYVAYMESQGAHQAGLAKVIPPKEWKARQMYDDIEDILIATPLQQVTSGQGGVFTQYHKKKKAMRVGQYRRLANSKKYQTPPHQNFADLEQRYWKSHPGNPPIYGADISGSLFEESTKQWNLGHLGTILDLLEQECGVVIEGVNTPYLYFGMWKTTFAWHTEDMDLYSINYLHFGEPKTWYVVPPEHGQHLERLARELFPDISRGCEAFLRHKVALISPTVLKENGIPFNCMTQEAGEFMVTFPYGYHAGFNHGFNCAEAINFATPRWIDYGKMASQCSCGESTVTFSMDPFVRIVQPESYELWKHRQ
Text: The oxidation of formaldehyde is coupled to the reduction of NAD^+ to NADH, which is monitored by fluorescence spectroscopy. […] To this end, initial screening hits were filtered by a combination of cheminformatics (to exclude low-confidence inhibitors and autofluorescent false positives), counterscreening against the coupled-assay component formaldehyde dehydrogenase (FDH), and orthogonal direct detection of inhibition of demethylation by mass spectrometry ( Figure 1 ).
Reactions were initiated with 1 µL addition of peptide substrate solution containing final concentrations of 10 µM FAS, 50 µM 2OG, 0.25 U/mL FDH, 0.25 mM NAD^+, and 50 µM peptide substrate (ARK(me3)STGGK). A ViewLux imager (PerkinElmer, Waltham, MA) was used to measure NADH fluorescence (λex 340 nm, λem 450 nm) immediately after substrate addition and following 30 min incubation at room temperature. To record any systematic drifts in assay behavior (signal window and noise), assay plates containing no library compounds but only DMSO as a vehicle control were tested periodically (every ∼60 plates) throughout the screen.
Data were normalized to the basal response (0% activity) in the absence of enzyme and the maximal response (100% activity) in the absence of compound. Using the Hill equation, dose-response curves and IC50 values were automatically generated for each compound tested with software developed internally (www.ncgc.nih.gov/pub/openhts/curvefit/). […] The initial well fluorescence (first kinetic read) associated with each sample was stored in a database and used in the cheminformatics analysis to identify autofluorescent compounds interfering with the assay signal.

[3] = biological target: T3, JMJD2E (Homo sapiens, UniProt B2RXH2); assay: JMJD2E FDH-coupled assay under low and high iron conditions (iron chelation profile); parameters: The catalytic domain of human JMJD2E (residues 1–337); His6 (N); made in house; host or cells: E. coli; conditions: for IC50: unit not in table, from Figure 2
T3 sequence (B2RXH2 1-337): T2 sequence (B2RXH2 1-337)
Experimental: The prioritized compounds were also evaluated in the screening assay using two different ferrous ion concentrations (termed high iron and low iron, respectively), in order to assess their propensity for iron chelation.
The ratio of IC50 values under high iron to low iron was calculated for each compound.

[4] = Table S1, unit not in table, from Figure 2, read-out: qHTS Data: jmjd2e IC50
[5] = Table S1, high iron, head says 20 µM FAS, read-out: qHTS Data: jmjd2e fas20um IC50
[6] = Table S1, low iron 2.5 µM FAS, read-out: qHTS Data: jmjd2e fas2.5um IC50
[7] = Table S1, FDH counterscreen, unit not in table, from Figure 2, read-out: qHTS Data: jmjd2e fdh IC50
[8] = Figure 3, substituted 8-hydroxyquinolines against JMJD2E, read-out: IC50 /μM (qHTS IC50, FDH-coupled assay)

T1 sequence (P46154 whole entry): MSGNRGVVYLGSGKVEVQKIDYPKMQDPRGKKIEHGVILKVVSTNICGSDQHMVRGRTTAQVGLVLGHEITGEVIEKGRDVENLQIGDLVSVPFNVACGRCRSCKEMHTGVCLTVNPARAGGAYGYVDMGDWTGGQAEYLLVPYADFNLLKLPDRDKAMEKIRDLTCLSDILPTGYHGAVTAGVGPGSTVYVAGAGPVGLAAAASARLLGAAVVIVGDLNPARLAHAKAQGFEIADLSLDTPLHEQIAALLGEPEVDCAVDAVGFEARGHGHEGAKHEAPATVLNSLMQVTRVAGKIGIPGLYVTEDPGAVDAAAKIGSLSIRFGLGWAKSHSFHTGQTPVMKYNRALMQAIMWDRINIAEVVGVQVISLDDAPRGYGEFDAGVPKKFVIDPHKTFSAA

Compound	qHTS Data: jmjd2e fdh CurveClass ([1]; Table S1, FDH counterscreen)	other results
CC1(OC(=O)CCc2ccccc2)C(=O)C=C2C=C(c3ccc(C#N)cc3)N(C3CC3)C=C2C1=O (stereo not shown) [SID 26725552]	–	IC50 ([1]; Figure 2, 0.025 U/mL FDH, 10 µM formaldehyde, read-out: IC50 values in μM, FDH): > 57 µM
CC1(OC(=O)C2CCCC2)C(=O)C=C2C=C(c3ccsc3)N(CCc3ccccn3)C=C2C1=O (stereo not shown) [compound 26725362]	Inactive	–
O=C1C=C(O)c2cccc(O)c2C1=O [compound 26724134]	Inactive	IC50 [2, 4]: 7.94 µM; IC50 [3, 5]: 19.9 µM; qHTS Data: jmjd2e fas2.5um Curve comment ([3]; Table S1, low iron 2.5 µM FAS): Poor quality curve; IC50 [3, 6]: 14.1 µM
O=C(O)C(=O)O.O=C(c1ccccc1)N1CCN(CC2CC=CCC2)CC1 (stereo not shown) [compound 844960]	Inconclusive	IC50 [1, 7]: 5.01 µM
CN(C)CCCNCC(=O)Nc1ccc(Cl)cc1C(=O)c1ccccc1.O=C(O)C(=O)O [compound 24839839]	Inactive	–
O=C(CN1CCN(Cc2ccccc2)CC1)NC(c1ccccc1)c1ccccc1.O=C(O)C(=O)O [compound 24822653]	Inactive	–
Clc1ccc(SCCN2CCNCC2)cc1.O=C(O)C(=O)O [compound 24783981]	Inactive	–
FC(F)(F)c1ccccc1CN1CCN(C2CCCCCC2)CC1.O=C(O)C(=O)O [compound 22403162]	Inactive	–
COC(=O)CCC(=O)OC1(C)C(=O)C=C2C=C(C3CC3)N(CCc3ccccn3)C=C2C1=O (stereo not shown) [compound 26725368]	Inactive	–
CCCCn1c(=O)[nH]c2nc3cc(NC(C)=O)ccc3nc2c1=O [compound 26671554]	–	IC50 [1, 7]: 11.2 µM
CN(C)c1cc(N/N=C/c2ccc(Cl)cc2)nc(N(C)C)n1 [compound 24813304]	Poor quality curve	IC50 [1, 7]: 14.1 µM
COc1ccccc1NC(=O)c1sc2ncn(Cc3ccccc3C)c(=O)c2c1C [SID 17408386]	–	IC50 ([2]; Figure 2, 100 nM JMJD2E, 10 µM FAS, read-out: IC50 values in μM, qHTS): 4.5 µM
Oc1c(CN2CCCC2)cc(COCc2ccccc2)c2cccnc12 [compound 85736312]	–	IC50 [2, 8]: 5 µM
COc1cccc(CN2CCN(C(=O)c3ccc(-c4ccccc4)cc3)CC2)c1OC.O=C(O)C(=O)O [compound 24807835]	Inactive	–
Cc1noc(C)c1C(=O)NNc1ccc(C(C)C)cc1 [compound 26728365]	Inactive	–
Cc1cccc(N2C(=O)CC(Sc3ncn[nH]3)C2=O)c1 (stereo not shown) [compound 24809940]	–	IC50 [1, 7]: 0.28 µM
O=C(Nc1ccccc1C(F)(F)F)c1ncn[nH]1 [compound 24822488]	Poor quality curve	IC50 [1, 7]: 22.4 µM
Cc1cc(N(C)/N=C/c2ccccc2)nc(-c2ccccc2O)n1 [compound 24801833]	–	IC50 [1, 7]: 39.8 µM
O=C(Cc1ccccc1)N1CCN(Cc2ccccn2)CC1 [SID 4263376]	–	IC50 ([1]; IC50 values in μM, FDH, Figure 2, 0.025 U/mL FDH, 10 µM formaldehyde): > 57 µM
Cc1ccc(NC2=CC(=O)CC(C)(C)C2)c(N)c1 [compound 849268]	Inactive	–
O=C(NNC(=O)c1ccc(O)cc1O)c1ccc(Cl)cc1 [compound 17414133]	Inactive	–
CCOc1ccc2ccccc2c1/C=N/NC(=O)CNC(=O)C(c1ccccc1)c1ccccc1 [compound 17512004]	–	IC50 [1, 7]: 10 µM
O=C(CN1CCN(c2ncccn2)CC1)N1CCCC1.O=C(O)C(=O)O [compound 24790164]	Inactive	–
O=C(O)CN(CCN(CC(=O)O)CC(=O)O)CC(=O)O [EDTA, reference compound]	–	ratio of IC50 values under high iron to low iron ([3]; 25 and 2.5 µM Fe(II)): 5.9
CC(CCc1ccccc1)NC(=O)CN1CCN(c2ccc(O)cc2)CC1 (stereo not shown) [compound 24833440]	Inactive	–
COCCN1C=C2C(=O)C(C)(OC(=O)CCc3ccccc3)C(=O)C=C2C=C1c1ccc(C#N)cc1 (stereo not shown) [compound 26725518]	Poor quality curve	–
CC1=C(C(N)=O)C(c2ccc3c(c2)OCO3)n2nc(-c3cccc(C)c3)nc2N1 (stereo not shown) [compound 4245376]	Inactive	–
Oc1ccc(CNc2cccc(C(F)(F)F)c2)c2cccnc12 [compound 50122416]	–	IC50 [2, 8]: 7.9 µM

Compound	qHTS Data: jmjd2e fdh CurveClass ([1]; Table S1, FDH counterscreen)	other results
CC1(OC(=O)CCc2ccccc2)C(=O)C=C2C=C(c3ccc(C#N)cc3)N(C3CC3)C=C2C1=O (stereo not shown) [compound 26725552]	Inactive	–
CCC(=O)c1ccccc1OCCN1CCN(Cc2ccccc2)CC1.O=C(O)C(=O)O [compound 24782649]	Inactive	–
OCc1ccnc2c(O)cccc12 [compound 857270]	–	IC50 [2, 8]: 8.9 µM
Oc1cccc2ccc(/C=C/c3c(F)cccc3Cl)nc12 [compound 24793399]	–	IC50 [2, 8]: 28 µM
O=C(Cc1ccccc1)N1CCN(Cc2ccccn2)CC1 [compound 4263376]	Inactive	–
Oc1cccc2ccc(/C=C/c3cccs3)nc12 [compound 14734630]	–	IC50 [2, 8]: > 39 µM
CC(C)NC[C@H](O)c1ccc(O)c(O)c1 [compound 11112573]	Inactive	–
O=C(O)C(=O)O.S=C(NCC1CCCO1)N1CCN(Cc2ccccc2)CC1 (stereo not shown) [compound 24807070]	Inactive	–
O=C(CC1Sc2ncnn2C1=O)Nc1ccccc1 (stereo not shown) [compound 14735867]	–	IC50 [1, 7]: 0.28 µM
S=c1nc(C2COc3ccccc3O2)[nH][nH]1 (stereo not shown) [compound 24801312]	-1.3	IC50 [1, 7]: 15.8 µM
C/C(Cn1nnc([N+](=O)[O-])n1)=N\NC(=O)c1ccc(O)cc1O [compound 22414653]	Inactive	–
COc1ccc(Cl)cc1CSc1ncn[nH]1 [compound 26662682]	–	IC50 [1, 7]: 0.32 µM
Oc1cc(O)c2c(c1)OC(c1cc(O)c(O)c(O)c1)C(O)C2 (stereo not shown) [compound 26749553]	–	IC50 [2, 4]: 1.41 µM; qHTS Data: jmjd2e fas20um CurveClass ([3]; Table S1, high iron): Poor quality curve; IC50 [3, 5]: 3.16 µM; IC50 [3, 6]: 2.82 µM
O=C(O)c1ccnc2c(O)cccc12 [SID 85736397, 4-carboxy-8-hydroxyquinoline]	–	IC50 ([2]; FDH coupled assay, read-out: IC50 against JMJD2E): 2 µM; IC50 [2, 8]: 2.0 µM
O=C(CN1CCCCCC1)NCC1CCCO1.O=C(O)C(=O)O (stereo not shown) [compound 24790169]	Inactive	–
CC1CCN(CC(=O)NCCc2ccc(F)cc2)CC1.O=C(O)C(=O)O [compound 24804760]	Poor quality curve	–
Cc1ccc(SCCCCN2CCNCC2)cc1.O=C(O)C(=O)O [compound 17504558]	Inactive	–
O=C(O)C(=O)O.c1cc(CN2CCN(C3CCCCCC3)CC2)ccn1 [compound 24817627]	Inactive	–
Oc1ccc(COCc2ccccc2)c2cccnc12 [compound 848472]	–	IC50 [2, 8]: 36 µM
Fc1ccc(/C=C2\CCCC3=C2Nc2ncnn2C3c2ccc(F)cc2)cc1 (stereo not shown) [compound 14745056]	–	IC50 [1, 7]: 10 µM
Cc1nc(NC(=O)c2oc3ccccc3c2C)sc1C(=O)N(C)C [compound 4262050]	Poor quality curve	–
COc1cc(C2C3=C(CCCC3=O)Nc3c2c(C)nn3-c2cccc(C)c2)cc(OC)c1O (stereo not shown) [compound 26724424]	Inactive	–
Cc1ccc2ccc(C(Nc3ccccn3)c3ccccc3)c(O)c2n1 (stereo not shown) [compound 14737227]	–	IC50 [2, 4]: 39.8 µM
O=c1cc(O)c2sc(Nc3ccc(F)cc3)nc2[nH]1 [compound 17505973]	Inactive	–
CCNc1nc(C(=O)O)nc(N2CCOCC2)n1 [compound 24789924]	Inactive	–
COc1cc(CNCCN2CCOCC2)ccc1OCc1c(Cl)cccc1Cl.Cl [compound 17505294]	Inactive	–
Cc1cccc(NCc2ccc(O)c3ncccc23)c1 [compound 24790252]	Inactive	–
